The target of assay [1] is rat α3β4 nAChR (Rattus norvegicus, UniProt P04757+P12392). Nature of the assay: cell-based.
Assay [2] addresses rat α6/α3β4 nAChR (Rattus norvegicus, UniProt P04757+P12392+P43143). Briefly: cell-based.
[3] abbreviates: α6/α3β4 IC50 (half-blocking dose).

Several values for one entry are separate records, joined by “and”; a condition that tells them apart may be missing. Equal values may be shown once. Peptide text beside a SMILES is read from it.

Sequence of rat α6/α3β4 nAChR (P04757 whole entry, looked up): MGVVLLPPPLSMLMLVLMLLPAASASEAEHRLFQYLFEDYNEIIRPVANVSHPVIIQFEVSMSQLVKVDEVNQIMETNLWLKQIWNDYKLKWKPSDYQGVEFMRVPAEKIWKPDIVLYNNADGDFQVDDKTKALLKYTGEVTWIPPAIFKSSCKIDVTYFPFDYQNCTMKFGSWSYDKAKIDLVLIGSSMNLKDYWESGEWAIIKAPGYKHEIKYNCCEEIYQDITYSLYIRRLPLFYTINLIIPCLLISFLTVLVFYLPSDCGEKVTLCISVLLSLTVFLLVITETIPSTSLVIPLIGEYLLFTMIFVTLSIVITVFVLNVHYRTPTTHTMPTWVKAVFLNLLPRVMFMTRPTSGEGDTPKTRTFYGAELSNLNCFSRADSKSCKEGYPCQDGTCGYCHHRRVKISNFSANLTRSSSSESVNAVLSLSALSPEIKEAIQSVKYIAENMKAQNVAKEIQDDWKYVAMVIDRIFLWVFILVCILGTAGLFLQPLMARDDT
Sequence of rat α6/α3β4 nAChR (P12392 whole entry, looked up): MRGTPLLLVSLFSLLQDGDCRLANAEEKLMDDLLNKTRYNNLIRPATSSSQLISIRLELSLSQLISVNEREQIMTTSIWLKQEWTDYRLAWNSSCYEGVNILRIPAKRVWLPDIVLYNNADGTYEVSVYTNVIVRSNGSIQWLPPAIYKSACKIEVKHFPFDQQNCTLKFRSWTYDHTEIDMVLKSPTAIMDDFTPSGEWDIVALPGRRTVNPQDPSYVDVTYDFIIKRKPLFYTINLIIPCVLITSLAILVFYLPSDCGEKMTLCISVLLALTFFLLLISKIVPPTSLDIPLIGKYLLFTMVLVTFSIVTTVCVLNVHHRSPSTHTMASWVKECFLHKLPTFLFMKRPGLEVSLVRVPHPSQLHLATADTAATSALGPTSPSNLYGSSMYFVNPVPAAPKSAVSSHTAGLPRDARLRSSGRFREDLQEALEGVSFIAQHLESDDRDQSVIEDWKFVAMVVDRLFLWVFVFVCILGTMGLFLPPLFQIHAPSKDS
Sequence of rat α6/α3β4 nAChR (P43143 whole entry, looked up): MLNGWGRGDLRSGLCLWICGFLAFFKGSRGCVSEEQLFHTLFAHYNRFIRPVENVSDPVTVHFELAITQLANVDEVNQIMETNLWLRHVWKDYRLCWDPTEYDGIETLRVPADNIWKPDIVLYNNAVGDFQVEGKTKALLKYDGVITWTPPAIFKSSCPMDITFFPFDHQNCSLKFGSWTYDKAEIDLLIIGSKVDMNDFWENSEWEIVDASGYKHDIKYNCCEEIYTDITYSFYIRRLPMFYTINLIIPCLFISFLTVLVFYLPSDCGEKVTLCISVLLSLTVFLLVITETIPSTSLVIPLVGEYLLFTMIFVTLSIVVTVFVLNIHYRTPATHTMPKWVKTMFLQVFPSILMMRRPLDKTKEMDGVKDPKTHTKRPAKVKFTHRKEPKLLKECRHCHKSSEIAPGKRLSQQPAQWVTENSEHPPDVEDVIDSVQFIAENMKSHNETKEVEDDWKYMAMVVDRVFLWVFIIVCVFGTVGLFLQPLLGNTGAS
Sequence of rat α3β4 nAChR (P04757 26-499 limits assumed): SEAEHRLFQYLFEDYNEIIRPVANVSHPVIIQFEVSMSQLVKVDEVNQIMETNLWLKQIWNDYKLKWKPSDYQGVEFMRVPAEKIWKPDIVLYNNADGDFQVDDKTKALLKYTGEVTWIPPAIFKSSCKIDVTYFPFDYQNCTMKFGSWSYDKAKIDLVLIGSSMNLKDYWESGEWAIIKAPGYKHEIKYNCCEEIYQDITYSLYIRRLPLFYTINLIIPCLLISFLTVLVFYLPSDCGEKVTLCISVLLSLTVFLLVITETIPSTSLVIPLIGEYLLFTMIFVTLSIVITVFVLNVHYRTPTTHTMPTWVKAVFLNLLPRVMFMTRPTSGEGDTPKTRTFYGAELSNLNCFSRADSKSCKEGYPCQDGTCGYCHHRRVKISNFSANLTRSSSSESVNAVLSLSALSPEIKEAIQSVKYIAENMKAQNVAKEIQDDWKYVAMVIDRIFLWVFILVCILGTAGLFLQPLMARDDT
Sequence of rat α3β4 nAChR (P12392 21-495 limits assumed): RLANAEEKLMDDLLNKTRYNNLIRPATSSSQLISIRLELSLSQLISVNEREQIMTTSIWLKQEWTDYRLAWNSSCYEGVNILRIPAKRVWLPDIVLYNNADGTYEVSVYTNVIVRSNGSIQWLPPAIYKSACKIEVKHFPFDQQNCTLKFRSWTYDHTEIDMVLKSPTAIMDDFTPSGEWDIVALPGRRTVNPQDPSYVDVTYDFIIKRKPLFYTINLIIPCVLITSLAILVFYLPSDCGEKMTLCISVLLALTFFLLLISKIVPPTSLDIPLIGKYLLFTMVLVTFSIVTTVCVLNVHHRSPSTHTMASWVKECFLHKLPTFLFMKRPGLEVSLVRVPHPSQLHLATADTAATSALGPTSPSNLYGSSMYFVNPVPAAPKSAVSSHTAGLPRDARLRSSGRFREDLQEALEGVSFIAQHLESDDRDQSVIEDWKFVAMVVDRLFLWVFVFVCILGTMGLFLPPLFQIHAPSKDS

As for `CSCC[C@@H]1NC(=O)[C@H](C)NC(=O)[C@H](CO)NC(=O)[C@@H]2CSSC[C@H](NC(=O)CN)C(=O)N[C@@H](CSSC[C@@H](C(N)=O)NC(=O)[C@H](CC(C)C)NC(=O)[C@@H]3CCCN3C(=O)[C@H](CO)NC1=O)C(=O)N[C@@H](CO)C(=O)N[C@@H](Cc1c[nH]cn1)C(=O)N1CCC[C@H]1C(=O)N[C@@H](C(C)C)C(=O)N2` [TxID[I14L]] (HELM PEPTIDE1{G.C.C.S.H.P.V.C.S.A.M.S.P.L.C.[am]}$PEPTIDE1,PEPTIDE1,2:R3-8:R3|PEPTIDE1,PEPTIDE1,3:R3-15:R3$$$V2.0), in assay [1], the “α3β4 IC50 ratio” value came to 2.8. Moreover, the figures for the 50% inhibitory concentration (IC50) in assay [1] (α3β4 IC50 (half-blocking dose)) and in assay [2] (setting [3]) were 9.98 nM and 29 nM, respectively. Besides, the “IC50 ratio of α6/α3β4 vs. α3β4 (Discrimination)” value (“IC50 ratio of α6/α3β4 vs. α3β4” for short) in assay [2] is 2.9. Besides, in assay [2], the “α6/α3β4 IC50 ratio” value was 0.9.
In the case of `CC[C@H](C)[C@@H]1NC(=O)[C@@H]2CCCN2C(=O)[C@H](CO)NC(=O)[C@H](CCSC)NC(=O)[C@H](C)NC(=O)[C@H](CO)NC(=O)[C@@H]2CSSC[C@H](NC(=O)CN)C(=O)N[C@@H](CSSC[C@@H](C(N)=O)NC1=O)C(=O)N[C@@H](CO)C(=O)N[C@@H](Cc1c[nH]cn1)C(=O)N1CCC[C@H]1C(=O)N[C@@H](C)C(=O)N2` [TxID[V7A]] (HELM PEPTIDE1{G.C.C.S.H.P.A.C.S.A.M.S.P.I.C.[am]}$PEPTIDE1,PEPTIDE1,2:R3-8:R3|PEPTIDE1,PEPTIDE1,3:R3-15:R3$$$V2.0), the IC50 in assay [1] (α3β4 IC50 (half-blocking dose)) and in assay [2] (setting [3]) was greater than 10000 nM throughout.
Take `CSCC[C@@H]1NC(=O)[C@H](C)NC(=O)[C@H](CO)NC(=O)[C@@H]2CSSC[C@H](NC(=O)CN)C(=O)N[C@@H](CSSC[C@@H](C(N)=O)NC(=O)[C@H](C)NC(=O)[C@@H]3CCCN3C(=O)[C@H](CO)NC1=O)C(=O)N[C@@H](CO)C(=O)N[C@@H](Cc1c[nH]cn1)C(=O)N1CCC[C@H]1C(=O)N[C@@H](C(C)C)C(=O)N2` [TxID[I14A]] (HELM PEPTIDE1{G.C.C.S.H.P.V.C.S.A.M.S.P.A.C.[am]}$PEPTIDE1,PEPTIDE1,2:R3-8:R3|PEPTIDE1,PEPTIDE1,3:R3-15:R3$$$V2.0): in assay [1], the “α3β4 IC50 ratio” value came out at 4.4. In assay [1] (α3β4 IC50 (half-blocking dose)), this compound gave an IC50 of 16.1 nM. Besides, in assay [2], the “IC50 ratio of α6/α3β4 vs. α3β4” value was determined as 2.8 and the “α6/α3β4 IC50 ratio” value is 1.3. In addition, inhibition in assay [2] (setting [3]) was half-maximal at 45.8 nM (IC50).
`CC[C@H](C)[C@@H]1NC(=O)[C@@H]2CCCN2C(=O)[C@H](CO)NC(=O)[C@H](CCSC)NC(=O)[C@H](C)NC(=O)[C@H](CO)NC(=O)[C@@H]2CSSC[C@H](NC(=O)CN)C(=O)N[C@@H](CSSC[C@@H](C(N)=O)NC1=O)C(=O)N[C@@H](CO)C(=O)N[C@@H](Cc1c[nH]cn1)C(=O)N1CCC[C@H]1C(=O)N[C@@H](C(C)C)C(=O)N2` [TxID, reference compound]: in assay [1], the “blocking of rat α3β4 nAChRs current” value was “strong blocking activities”; the current blocked was 97% and 67%; the “elution time for current to return to the level of control current” value is given as no more than 2 min. Also, in assay [2], the current blocked was 85% and 46%; the “discrimination degree between α3β4 and α6β4* nAChRs” value is reported as 9.3 times.
On to `CC[C@H](C)[C@@H]1NC(=O)[C@H](C)NC(=O)[C@H](CO)NC(=O)[C@H](CCSC)NC(=O)[C@H](C)NC(=O)[C@H](CO)NC(=O)[C@@H]2CSSC[C@H](NC(=O)CN)C(=O)N[C@@H](CSSC[C@@H](C(N)=O)NC1=O)C(=O)N[C@@H](CO)C(=O)N[C@@H](Cc1c[nH]cn1)C(=O)N1CCC[C@H]1C(=O)N[C@@H](C(C)C)C(=O)N2` [TxID[P13A]] (HELM PEPTIDE1{G.C.C.S.H.P.V.C.S.A.M.S.A.I.C.[am]}$PEPTIDE1,PEPTIDE1,2:R3-8:R3|PEPTIDE1,PEPTIDE1,3:R3-15:R3$$$V2.0), for which the IC50 in assay [1] (α3β4 IC50 (half-blocking dose)) and in assay [2] (setting [3]) was greater than 10000 nM throughout.
As for `CC[C@H](C)[C@@H]1NC(=O)[C@H](Cc2c[nH]cn2)NC(=O)[C@@H]2CCCN2C(=O)[C@H](CO)NC(=O)[C@H](CCSC)NC(=O)[C@H](C)NC(=O)[C@H](CO)NC(=O)[C@@H]2CSSC[C@H](NC(=O)CN)C(=O)N[C@@H](CSSC[C@@H](C(N)=O)NC1=O)C(=O)N[C@@H](CO)C(=O)N[C@@H](Cc1c[nH]cn1)C(=O)N1CCC[C@H]1C(=O)N[C@@H](C(C)C)C(=O)N2` [TxID[14H]] (HELM PEPTIDE1{G.C.C.S.H.P.V.C.S.A.M.S.P.H.I.C.[am]}$PEPTIDE1,PEPTIDE1,2:R3-8:R3|PEPTIDE1,PEPTIDE1,3:R3-16:R3$$$V2.0), the “α3β4 IC50 ratio” value in assay [1] worked out at 9.2. In addition, the IC50 in assay [1] (α3β4 IC50 (half-blocking dose)) was 33 nM. Further, in assay [2], the “IC50 ratio of α6/α3β4 vs. α3β4” value is recorded as 9.5 and the “α6/α3β4 IC50 ratio” value came out at 9.2. The IC50 in assay [2] (setting [3]) was determined as 312 nM.
Take `CC[C@H](C)[C@@H]1NC(=O)[C@@H]2CCCN2C(=O)[C@H](CO)NC(=O)[C@H](CCSC)NC(=O)[C@H](C)NC(=O)[C@H](CO)NC(=O)[C@@H]2CSSC[C@H](NC(=O)CN)C(=O)N[C@@H](CSSC[C@@H](C(N)=O)NC1=O)C(=O)N[C@@H](C)C(=O)N[C@@H](Cc1c[nH]cn1)C(=O)N1CCC[C@H]1C(=O)N[C@@H](C(C)C)C(=O)N2` [TxID[S4A]] (HELM PEPTIDE1{G.C.C.A.H.P.V.C.S.A.M.S.P.I.C.[am]}$PEPTIDE1,PEPTIDE1,2:R3-8:R3|PEPTIDE1,PEPTIDE1,3:R3-15:R3$$$V2.0): in assay [1], the “α3β4 IC50 ratio” value is listed as 3.0. Also, in assay [2], the “IC50 ratio of α6/α3β4 vs. α3β4” value came out at 5.9 and the “α6/α3β4 IC50 ratio” value was 1.9.
`CC[C@H](C)[C@@H]1NC(=O)[C@@H]2CCCN2C(=O)[C@H](CO)NC(=O)[C@H](CCSC)NC(=O)[C@H](C)NC(=O)[C@H](C)NC(=O)[C@@H]2CSSC[C@H](NC(=O)CN)C(=O)N[C@@H](CSSC[C@@H](C(N)=O)NC1=O)C(=O)N[C@@H](CO)C(=O)N[C@@H](Cc1c[nH]c3ccccc13)C(=O)N1CCC[C@H]1C(=O)N[C@@H](C(C)C)C(=O)N2` [TxID[H5W, S9A]] (HELM PEPTIDE1{G.C.C.S.W.P.V.C.A.A.M.S.P.I.C.[am]}$PEPTIDE1,PEPTIDE1,2:R3-8:R3|PEPTIDE1,PEPTIDE1,3:R3-15:R3$$$V2.0): the IC50 in assay [1] (α3β4 IC50 (half-blocking dose)) and in assay [2] (setting [3]) was greater than 10000 nM in each case.
For the compound `CC[C@H](C)[C@@H]1NC(=O)[C@@H]2CCCN2C(=O)[C@H](CO)NC(=O)[C@H](CCSC)NC(=O)[C@H](C)NC(=O)[C@H](C)NC(=O)[C@@H]2CSSC[C@H](NC(=O)CN)C(=O)N[C@@H](CSSC[C@@H](C(N)=O)NC1=O)C(=O)N[C@@H](CO)C(=O)N[C@@H](Cc1c[nH]cn1)C(=O)N1CCC[C@H]1C(=O)N[C@@H](C(C)C)C(=O)N2` [TxID[S9A]] (HELM PEPTIDE1{G.C.C.S.H.P.V.C.A.A.M.S.P.I.C.[am]}$PEPTIDE1,PEPTIDE1,2:R3-8:R3|PEPTIDE1,PEPTIDE1,3:R3-15:R3$$$V2.0), in assay [1], the “binding (blocking) activity to α3β4 nAChR compared with wild type TxID” value is “no effect on the blocking activity”; the current blocked is 98% and 75%. Also, in assay [2], the “blocking activity to α6β4* nAChRs subtype” value is listed as “completely lost the blocking activity” and the current blocked is given as 26%.
In the case of `CC[C@H](C)[C@@H]1NC(=O)[C@@H]2CCCN2C(=O)[C@H](CO)NC(=O)[C@H](CCSC)NC(=O)[C@H](C)NC(=O)[C@H](Cc2ccccc2)NC(=O)[C@@H]2CSSC[C@H](NC(=O)CN)C(=O)N[C@@H](CSSC[C@@H](C(N)=O)NC1=O)C(=O)N[C@@H](CO)C(=O)N[C@@H](Cc1cnc[nH]1)C(=O)N1CCC[C@H]1C(=O)N[C@@H](C(C)C)C(=O)N2` [TxID[S9F]] (HELM PEPTIDE1{G.C.C.S.H.P.V.C.F.A.M.S.P.I.C.[am]}$PEPTIDE1,PEPTIDE1,2:R3-8:R3|PEPTIDE1,PEPTIDE1,3:R3-15:R3$$$V2.0), the IC50 was found to be 10.7 nM in assay [1] (α3β4 IC50), 13.9 nM in assay [1] (α3β4 IC50 (half-blocking dose)), 10.2 nM in assay [2] (α6/α3β4 IC50) and 7.11 nM in assay [2] (setting [3]).
Regarding `CC[C@H](C)[C@@H]1NC(=O)[C@@H]2CCCN2C(=O)[C@H](CO)NC(=O)[C@H](CCSC)NC(=O)[C@H](C)NC(=O)[C@H]([C@@H](C)O)NC(=O)[C@@H]2CSSC[C@H](NC(=O)CN)C(=O)N[C@@H](CSSC[C@@H](C(N)=O)NC1=O)C(=O)N[C@@H](CO)C(=O)N[C@@H](Cc1c[nH]cn1)C(=O)N1CCC[C@H]1C(=O)N[C@@H](C(C)C)C(=O)N2` [TxID[S9T]] (HELM PEPTIDE1{G.C.C.S.H.P.V.C.T.A.M.S.P.I.C.[am]}$PEPTIDE1,PEPTIDE1,2:R3-8:R3|PEPTIDE1,PEPTIDE1,3:R3-15:R3$$$V2.0), the “binding (blocking) activity to α3β4 nAChR compared with wild type TxID” value in assay [1] is “not significantly different from the activity of the wild type TxID”. Further, the “binding (blocking) activity to α6/α3β4 nAChR compared with wild type TxID” value in assay [2] is given as “not significantly different from the activity of the wild type TxID”.
For `CC[C@H](C)[C@@H]1NC(=O)[C@@H]2CCCN2C(=O)[C@H](C)NC(=O)[C@H](CCSC)NC(=O)[C@H](C)NC(=O)[C@H](CO)NC(=O)[C@@H]2CSSC[C@H](NC(=O)CN)C(=O)N[C@@H](CSSC[C@@H](C(N)=O)NC1=O)C(=O)N[C@@H](CO)C(=O)N[C@@H](Cc1c[nH]cn1)C(=O)N1CCC[C@H]1C(=O)N[C@@H](C(C)C)C(=O)N2` [TxID[S12A]] (HELM PEPTIDE1{G.C.C.S.H.P.V.C.S.A.M.A.P.I.C.[am]}$PEPTIDE1,PEPTIDE1,2:R3-8:R3|PEPTIDE1,PEPTIDE1,3:R3-15:R3$$$V2.0), the “α3β4 IC50 ratio” value in assay [1] worked out at 4.8. Besides, in assay [2], the “IC50 ratio of α6/α3β4 vs. α3β4” value is given as 2.3 and the “α6/α3β4 IC50 ratio” value is on record as 1.2.
Regarding `CSCC[C@@H]1NC(=O)[C@H](C)NC(=O)[C@H](CO)NC(=O)[C@@H]2CSSC[C@H](NC(=O)CN)C(=O)N[C@@H](CSSC[C@@H](C(N)=O)NC(=O)[C@H](CCCNC(=N)N)NC(=O)[C@@H]3CCCN3C(=O)[C@H](CO)NC1=O)C(=O)N[C@@H](CO)C(=O)N[C@@H](Cc1c[nH]cn1)C(=O)N1CCC[C@H]1C(=O)N[C@@H](C(C)C)C(=O)N2` [TxID[I14R]] (HELM PEPTIDE1{G.C.C.S.H.P.V.C.S.A.M.S.P.R.C.[am]}$PEPTIDE1,PEPTIDE1,2:R3-8:R3|PEPTIDE1,PEPTIDE1,3:R3-15:R3$$$V2.0), in assay [1], the “α3β4 IC50 ratio” value is reported as 2.5. This compound also showed an IC50 in assay [1] (α3β4 IC50 (half-blocking dose)) of 9.2 nM. Besides, in assay [2], the “IC50 ratio of α6/α3β4 vs. α3β4” value came out at 7.3 and the “α6/α3β4 IC50 ratio” value was 2.0. This compound also had an IC50 in assay [2] (setting [3]) of 67.4 nM.

As a reminder, the IC50 is the point on the concentration scale where inhibition reaches its midpoint.

Values taken from patent publication US20190330275A1 (priority 2016, published 2019).
